# Source: PMC10031131, “Design, synthesis and evaluation of a series of potential prodrugs of a Bruton’s tyrosine kinase (BTK) inhibitor” (Frontiers in Pharmacology, 2023)
# Where two headings read alike, the source gives them in different places.
# Key:
# BTK [1] = biological target: T1, BTK (Homo sapiens, UniProt Q06187); conditions: Figure 2; ref Kuglstatter et al., 2011; cited from earlier work
# T1 construct: purchased Carna Biosciences
# [2] = Chemical stability in DMSO or buffer by HPLC; assay type: physicochemical; conditions: HPLC analysis of in vitro stability after 24 h at room temperature
# [3] = Thermodynamic solubility determination assay; assay type: physicochemical; conditions: Britton-Robinson buffer (pH 6.5); for solubility thermodynamic: 25 °C, aqueous buffer, thermodynamic from solid, average of two measurements, read-out: S, pH 6.5 (thermodynamic solubility)
# Protocol: Prior to mixing with the appropriate medium, the test chemical was accurately weighed into an appropriately sized screw-capped glass vial. The generated slurry was sonicated at room temperature for 20 min and at 50°C for 15 min, and then agitated at room temperature for at least two days before the crystallinity of the remaining solid was examined using a polarized light microscope. If crystallinity was not observed, more time for equilibration was allowed. The slurry was aliquoted into 1.5 mL centrifuge tubes on the day of analysis and centrifuged at 15,000 rpm for 20 min at 25°C. The supernatant’s concentration was determined by UV-vis (YOKE, T-U7S).
# BTK [4] = biological target: T1, BTK; test: Cell-free kinase enzymology assay (HTRF KinEase); assay type: biochemical
# Protocol: FIGURE 4 (A) Enzymatic activities of parent 4 and prodrugs 5a-c for BTK. Kinase enzymology assays were carried out in accordance with the protocols described in the HTRF KinEase assays. (B) Time-dependent plasma stability assay.
# The kinase (BTK) was acquired from Carna Biosciences. Kinase acitivity assays were carried out based on Cisbio Bioassays’ HTRF® technology. At room temperature, kinase and substrate were combined with compounds in varied concentrations, followed by adding ATP to activate the enzymatic reactions. EDTA solution was added to stop the reactions after 1 h, followed by the addition of streptavidin XL665 conjugates and anti-phosphotyrosine antibodies. The mixtures were incubated for an additional 1 h at room temperature before reading on a plate reader (EnVision®, Perkin Elmer). GraphPad Prism was used to analyze the data.
# [5] = Human plasma stability assay; assay type: in vitro ADME
# Protocol: (§1) The in vitro stability in human plasma for the test compounds was investigated using procaine as the reference compound. The frozen human plasma was quickly thawed at 37°C. The spiking solution was made by combining 10 µL of a 10 mM compound stock solution with 990 µL of DMSO. The plasma and spiking solution were pre-warmed at 37°C for 5 min. Then 7 µL of the pre-warmed spiking solution was added into the 693 µL plasma evenly. The tests were carried out in duplicate in a 37°C shaking water bath. At 0, 5, 15, 30, 60, and 120 min, 100 µL samples were collected and added to a 400 µL solution containing an internal standard (IS). After quenching, the samples were vortexed for 5 min (600 rpm) and then centrifuged at 4,000 rpm for 20 min. LC-MS was used to analyze the clear supernatants. The values are the mean of two separate experiments.
# as §1, with “at 37 °C.” for “at 37°C.”, “at 37 ℃” for “at 37°C”, “a 37 °C” for “a 37°C”
# [6] = design: method as in Li et al., 2014; conditions: FaSSIF (Fasted State Simulated Intestinal Fluid, pH 6.5) medium; ref Li et al., 2014; cited from earlier work
# [7] = design: method as in Li et al., 2014; conditions: ref Li et al., 2014; cited from earlier work
# BTK^C481S = system: BTK^C481S; design: method as in Gui et al., 2019; conditions: Figure 2; ref Gui et al., 2019; cited from earlier work
# [8] = DMSO, read-out: DMSO (% remaining)
# [9] = buffer pH 7.4, read-out: Buffer, pH 7.4 (% remaining)
# T1 sequence (Q06187 whole entry): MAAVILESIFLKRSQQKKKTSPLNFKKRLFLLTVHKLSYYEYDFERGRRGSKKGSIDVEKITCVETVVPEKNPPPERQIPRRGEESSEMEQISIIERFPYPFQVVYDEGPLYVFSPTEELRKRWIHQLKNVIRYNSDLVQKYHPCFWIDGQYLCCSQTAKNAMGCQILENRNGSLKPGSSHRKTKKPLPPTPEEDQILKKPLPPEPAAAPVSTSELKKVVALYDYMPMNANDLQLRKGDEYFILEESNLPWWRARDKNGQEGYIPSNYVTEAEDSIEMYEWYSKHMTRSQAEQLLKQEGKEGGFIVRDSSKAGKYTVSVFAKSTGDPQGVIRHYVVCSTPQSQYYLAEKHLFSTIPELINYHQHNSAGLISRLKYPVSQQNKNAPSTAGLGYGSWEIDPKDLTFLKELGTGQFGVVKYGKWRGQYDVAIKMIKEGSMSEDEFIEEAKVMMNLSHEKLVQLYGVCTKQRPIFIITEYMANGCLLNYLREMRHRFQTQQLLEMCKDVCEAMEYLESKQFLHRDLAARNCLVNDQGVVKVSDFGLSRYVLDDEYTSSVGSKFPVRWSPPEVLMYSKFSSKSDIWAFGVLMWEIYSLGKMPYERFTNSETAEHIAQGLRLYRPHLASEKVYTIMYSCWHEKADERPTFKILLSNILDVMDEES
SMILES,"remaining at 24 h [2, 8]","remaining at 24 h [2, 9]",solubility thermodynamic [3],IC50 (BTK [4]),fold lower inhibitory potential for BTK compared to parent 4 (BTK [4]),other results
Cc1ccc(NC(=O)/C=C/c2ccccc2)cc1C(=O)Nc1cnc2[nH]c(-c3ccccc3)nc2c1 [Compound 1],–,–,–,–,–,IC50 (BTK [1]): 5600 nM
"C=CC(=O)Nc1cccc(Nc2ncc(NC(=O)c3cc(NC(=O)c4cccc(C(F)(F)F)c4)ccc3C)cn2)c1 [Compound 2, reference compound]",100%,–,2 µM,–,–,solubility in FaSSIF [6]: 7.02 µM; bioavailability (F%) [7]: 0.9%
Cc1cc(Nc2ncc3c(n2)N(C)CN(c2cc(NC(=O)c4cccc(C(F)(F)F)c4)ccc2C)C3)n(C)n1 [Compound 3],–,–,–,–,–,IC50 (BTK^C481S): 11 nM
"CCN(CC)CCOC(=O)c1ccc(N)cc1 [Procaine, reference compound]",–,–,–,–,–,"Analyte Peak Area ([5]; human plasma, 37°C, time 15 min, duplicates): BLOD; Analyte Peak Area ([5]; human plasma, 37°C, time 30 min, duplicates): BLOD; Analyte Peak Area ([5]; human plasma, 37°C, time 60 min, duplicates): BLOD; Analyte Peak Area ([5]; human plasma, 37°C, time 120 min, duplicates): BLOD"
CC(=O)Nc1cc(Nc2ncc(NC(=O)c3cc(NC(=O)c4cccc(C(F)(F)F)c4)ccc3C)cn2)ccc1O [Compound 4],100%,100%,6.6 µM,14 nM,–,–

# Continued, in another order:
"remaining at 24 h [2, 8]","remaining at 24 h [2, 9]",solubility thermodynamic [3],IC50 (BTK [4]),fold lower inhibitory potential for BTK compared to parent 4 (BTK [4]),SMILES,other results
100%,99%,88 µM,135 nM,10 fold,CC(=O)Nc1cc(Nc2ncc(NC(=O)c3cc(NC(=O)c4cccc(C(F)(F)F)c4)ccc3C)cn2)ccc1OC(=O)CN1CCN(C)CC1 [Compound 5a],"Analyte Peak Area [5]: BLOD; time for conversion to parent 4 in human plasma ([5]; human, 1 µM): less than 2 h"
100%,–,4.6 µM,124 nM,9 fold,"CC(=O)Nc1cc(Nc2ncc(NC(=O)c3cc(NC(=O)c4cccc(C(F)(F)F)c4)ccc3C)cn2)ccc1OC(=O)CN(C)C [Compound 5c, 2-Acetamido-4-((5-(2-methyl-5-(3-(trifluoromethyl)benzamido)benzamido)pyrimidin-2-yl)amino)phenyl dimethylglycinate]",–
100%,98%,22 µM,92 nM,7 fold,"CC(=O)Nc1cc(Nc2ncc(NC(=O)c3cc(NC(=O)c4cccc(C(F)(F)F)c4)ccc3C)cn2)ccc1OC(=O)CN [Compound 5b, 2-Acetamido-4-((5-(2-methyl-5-(3-(trifluoromethyl)benzamido)benzamido)pyrimidin-2-yl)amino)phenyl glycinate]",increase of solubility compared to parent 4 [3]: thrice
